One assay deals with Klebsiella aerogenes. Kind of assay: Growth inhibition evaluation (relative OD595). Conditions: 50 mg/mL glycyrrhizic acid in solution or 0.5 mL/mL of 10 wt % hydrogel, 24 h, 37 °C. The class given is cell-based, Klebsiella aerogenes ATCC13048. The procedure:
(§1) The growth inhibiting effect of 50 mg/mL glycyrrhizic acid in solution and 0.5 mL/mL of 10 wt % hydrogel C, corresponding with a total of 50 mg/mL of glycyrrhizic acid in the system are shown in grey bars with circles. Both are compared to suitable controls (shown in white bars with squares) i.e. growth media with an adjusted pH that is associated with the acidifying effect of glycyrrhizic acid in solution (pH 7.4) and hydrogel C (pH 4.6) but without the presence of glycyrrhizic acid in solution or hydrogel C, respectively. ns: p>0.05, ****p<0.0001. […]
(§2) Three different formulations of the glycyrrhizic acid hydrogels were made in dH2O: (i) Hydrogel C with pH=3, (ii) Hydrogel B with pH=3.8 and (iii) Hydrogel A with pH=4.2. pH was measured at 70 °C and varied using HCl or NaOH to acidify or alkalify the formulation to the desired pH-value. […]
(§3) To avoid evaporation, the plates were sealed using a membrane (Greiner Bio-one NV). After 24 hours of incubation (37 °C, 200 rpm), the OD595 was measured and relative OD595 was calculated by dividing the OD595 by the average OD595 of the growth control (=growth of cells in MHB without glycyrrhizic acid).

Assay [1] deals with Escherichia coli. Conditions: cited from earlier work.
For a further assay, the system named is Streptococci. Conditions: cited from earlier work.
For assay [2], the system named is Escherichia coli. Kind of assay: Growth inhibition evaluation (relative OD595). The class given is cell-based, Escherichia coli UTI89. The following applies: 50 mg/mL glycyrrhizic acid in solution or 0.5 mL/mL of 10 wt % hydrogel, 24 h, 37 °C. The procedure: as §1, §2, §3
The next assay deals with MRSA. Kind of assay: Growth inhibition evaluation (relative OD595). The assay is classed as cell-based, methicillin resistant S. aureus (MRSA), clinical isolate. Conditions: 25 mg/mL glycyrrhizic acid in solution or 0.5 mL/mL of 5 wt % hydrogel, 24 h, 37 °C. The procedure: (§4) The growth inhibiting effect of 25 mg/mL glycyrrhizic acid in solution and 0.5 mL/mL of 5 wt % hydrogel A, corresponding with a total of 25 mg/mL of glycyrrhizic acid in the system are shown in grey bars with circles. Both are compared to suitable controls (shown in white bars with squares) i.e. growth media with an adjusted pH that is associated with the acidifying effect of glycyrrhizic acid in solution (pH 7.4) and hydrogel A (pH 5.2) but without the presence of glycyrrhizic acid in solution or hydrogel A, respectively. ns: p>0.05, *p<0.05, **p<0.01, ****p<0.0001. […]
as §2, §3

Assay [3] deals with Staphylococcus epidermidis. Kind of assay: Growth inhibition evaluation (relative OD595). The assay is classed as cell-based, clinical isolate. Conditions: 25 mg/mL glycyrrhizic acid in solution or 0.5 mL/mL of 5 wt % hydrogel, 24 h, 37 °C. The procedure:
as §4, §2, §3

The test system of a further assay is Klebsiella pneumoniae. Kind of assay: Growth inhibition evaluation (relative OD595). The class given is cell-based, Klebsiella pneumoniae ATCC13883. Conditions: 50 mg/mL glycyrrhizic acid in solution or 0.5 mL/mL of 10 wt % hydrogel, 24 h, 37 °C. The procedure:
as §1, §2, §3

In a further assay the test system is Candida albicans. The following applies: cited from earlier work.
The subject of the next assay is Pseudomonas aeruginosa. Kind of assay: Growth inhibition evaluation (relative OD595). The following applies: 25 mg/mL glycyrrhizic acid in solution or 0.5 mL/mL of 5 wt % hydrogel, 24 h, 37 °C. The assay is classed as cell-based, Pseudomonas aeruginosa LMG9009. The procedure:
The growth inhibiting effect of 25 mg/mL glycyrrhizic acid in solution and 0.5 mL/mL of 5 wt % hydrogel B, corresponding with a total of 25 mg/mL of glycyrrhizic acid in the system are shown in grey bars with circles. Both are compared to suitable controls (shown in white bars with squares) i.e. growth media with an adjusted pH that is associated with the acidifying effect of glycyrrhizic acid in solution (pH 7.4) and hydrogel B (pH 5) but without the presence of glycyrrhizic acid in solution or hydrogel B, respectively. ns: p>0.05, ****p<0.0001. […]
as §2, §3

The subject of the next assay is Acinetobacter baumanni. Kind of assay: Growth inhibition evaluation (relative OD595). The following applies: 25 mg/mL glycyrrhizic acid in solution or 0.5 mL/mL of 5 wt % hydrogel, 24 h, 37 °C. The assay is classed as cell-based, Acinetobacter baumannii RD5SR3. The procedure: as §4, §2, §3
The next assay has as its system S. pyogenes. Kind of assay: Growth inhibition evaluation (relative OD595). The class given is cell-based, Streptococcus pyogenes LMG 14237. The procedure:
The glycyrrhizic acid concentration is calculated based on the percentage of glycyrrhizic acid in the gel and the amount of this gel used in the assay. Note that the pH at the gel surface is lower than the initial pH of the growth medium on top of the gel due to the acidifying effect of the hydrogel. This pH difference is dependent of the pH of the hydrogel, the percentage of glycyrrhizic acid in the hydrogel and the amount of hydrogel used. The different hydrogels are indicated by color: white circles represent the hydrogel A, grey circles represent hydrogel B and black circles represent the hydrogel C. The 2 grey dots at pH 7.0 in the plot represent the (lack of) activity of glycyrrhizic acid in solution. Of all nine pathogens tested, only Streptococcus pyogenes was inhibited by 50 mg/mL glycyrrhizic acid in solution.
The growth inhibiting effect of 25 mg/mL glycyrrhizic acid in solution and 0.5 mL/mL of 5 wt % hydrogel A, corresponding with a total of 25 mg/mL of glycyrrhizic acid in the system are shown in grey bars with circles. […]
as §2

The next assay concerns Streptococcus. Kind of assay: Antibacterial effect (no effect, bacteriostatic, bactericidal); growth inhibition followed by biocidal plating. The assay is classed as cell-based, Streptococcus pyogenes LMG 14237. The following applies: bactericidal = 3 LOG reduction compared to the inoculum. The procedure:
(§5) The below table summarises the antibacterial effect (no effect, bacteriostatic, bactericidal) of the glycyrrhizic acid hydrogels on different pathogens tested.
The bactericidal effect of 0.5 mL/mL of 5 wt % hydrogel A (shown in grey bars with circles) is compared to growth medium with an adjusted pH (pH 5.2) that is associated with the acidifying effect of hydrogel A (shown in white bars with squares). ns: p>0.05, ****p<0.0001. […]
as §2
(§6) To avoid evaporation, the plates were sealed using a membrane (Greiner Bio-one NV). After 24 hours of incubation (37 °C, 200 rpm), the OD595 was measured and relative OD595 was calculated by dividing the OD595 by the average OD595 of the growth control (=growth of cells in MHB without glycyrrhizic acid). […]

The next assay concerns Proteus vulgaris. Conditions: cited from earlier work.
Another assay concerns E. faecalis. Kind of assay: Growth inhibition evaluation (relative OD595). The assay is classed as cell-based, Enterococcus faecalis LMG8148. Conditions: 25 mg/mL glycyrrhizic acid in solution or 0.5 mL/mL of 5 wt % hydrogel, 24 h, 37 °C. The procedure: as §4, §2, §3
The test system of the next assay is Enterococcus. Kind of assay: Antibacterial effect (no effect, bacteriostatic, bactericidal); growth inhibition followed by biocidal plating. The following applies: bactericidal = 3 LOG reduction compared to the inoculum. The class given is cell-based, Enterococcus faecalis LMG8148. The procedure:
as §5
The bactericidal effect of 0.5 mL/mL of 10 wt % hydrogel C (shown in grey bars with circles) is compared to growth medium with an adjusted pH (pH 4.6) that is associated with the acidifying effect of hydrogel C (shown in white bars with squares). ****p<0.0001. […]
as §2, §6

Molecules are shown by their SMILES.

Turning to `CC1(C)[C@@H](O[C@H]2O[C@H](C(=O)O)[C@@H](O)[C@H](O)[C@H]2O[C@@H]2O[C@H](C(=O)O)[C@@H](O)[C@H](O)[C@H]2O)CC[C@]2(C)[C@H]3C(=O)C=C4[C@@H]5C[C@@](C)(C(=O)O)CC[C@]5(C)CC[C@@]4(C)[C@]3(C)CC[C@@H]12` [glycyrrhizic acid], the growth inhibiting activity entry (in the assay on Klebsiella aerogenes; with Escherichia coli [2]; with MRSA; in assay [3]; with Klebsiella pneumoniae; in the assay with Pseudomonas aeruginosa) was “lack of/limited growth inhibiting activity” in each case. The growth inhibiting activity entry in the assay with Acinetobacter baumanni was “lack of/limited growth inhibiting activity”; in the assay on S. pyogenes (S. pyogenes, 25 mg/mL glycyrrhizic acid in solution or 0.5 mL/mL of 5 wt % hydrogel, 24 h, 37 °C), “lack of/limited growth inhibiting activity”; in the assay on E. faecalis it was “lack of/limited growth inhibiting activity”. The “antibacterial potential in solution” value with Escherichia coli [1], in the assay on Streptococci, in the assay with Candida albicans and with Proteus vulgaris was “lack of activity” throughout. Also, the “complete growth inhibition (FIG. 1)” value in the assay with S. pyogenes (50 mg/mL glycyrrhizic acid in solution, only Streptococcus pyogenes of nine pathogens) was “inhibited”. The “antibacterial effect (no effect, bacteriostatic, bactericidal)” value is on record as “Bacterio-” in the assay on Streptococcus and “No effect” in the assay with Enterococcus.
